# Data taken from patent US20040121946A9, “Inducing cellular immune responses to her2/neu using peptide and nucleic acid compositions” (priority 2002, published 2004).
# Where no end group is shown, it is not given here.
# How the values were obtained:
# DRB5*0101 (DR2w2β2) = DRB5*0101 (DR2w2β2) (Homo sapiens, UniProt P01903+Q30154); experiment: HLA class II peptide binding assay, purified HLA; settings: for DR2w2B2 binding data: unit not given
# [1] = tested on: HLA-DR molecules (DR1, DR4w4, DR7, DRB5*0101, DRB1*1501, DRB1*1101, DRB1*0802, DRB1*1302); experiment: DR supertype cross-reactive binding; design: species or system human; settings: for DR147 Binding / DR147 Cross-binding: number of DR1, DR4w4, DR7 bound; for DR147 Binding: Table XXIX; for DR147 Cross-binding: Table XXVIII; for Broad Binding (5/8): number of the 8 DR alleles bound
# DRB1*1501 (DR2w2β1) = DRB1*1501 (DR2w2β1) (Homo sapiens, UniProt P01903+P01911); experiment: HLA class II peptide binding assay, purified HLA; settings: for DR2wB1 binding data: Table XIX, DR supermotif peptides
# DRB1*1302 (DR6w19) = DRB1*1302 (DR6w19) (Homo sapiens, UniProt P01903+P01911, A100E/A169T/K41T/L162R/M171V/P40S/Q125H/Q178H/Q39Y/Q99D/R42S/S66N/T262R/V115G/W38E/Y61H); experiment: HLA class II peptide binding assay, purified HLA; settings: for DR6w19 binding data: unit not given
# DRB1*1101 (DR5w11) = DRB1*1101 (DR5w11) (Homo sapiens, UniProt P01903+P01911, A100R/A169T/A87E/I96F/K41T/L162R/M171V/P40S/Q125H/Q178H/Q39Y/Q99D/R42S/S66Y/T262R/V115G/W38E); experiment: HLA class II peptide binding assay, purified HLA; settings: unit not given
# DRB1*0802 (DR8w2) = DRB1*0802 (DR8w2) (Homo sapiens, UniProt P01903+P01911, A100R/A103L/A169T/F76Y/H45Y/I96F/K41T/L162R/M171V/P40S/Q125H/Q178H/Q39Y/Q99D/R218S/R42G/S66Y/V115G/W38E); experiment: HLA class II peptide binding assay, purified HLA; settings: unit not given
# DRB1*0401 (DR4w4) = DRB1*0401 (DR4w4) (Homo sapiens, UniProt P01903+P01911, A100K/A169T/F76Y/I96L/K127E/L162R/M171V/N62H/P40V/Q125Y/R42H/S133A/S149N/S66Y/V115G/V209L/W38E); experiment: HLA class II peptide binding assay, purified HLA; settings: Table XIX, DR supermotif peptides; unit not given
# DRB1*0101 (DR1) = DRB1*0101 (DR1) (Homo sapiens, UniProt P01903+P01911, A100R/D57E/F55L/F60I/F76Y/I96L/L162R/M171V/P40L/Q125E/R42F/V115G/Y59C); experiment: HLA class II peptide binding assay, purified HLA; settings: unit not given
# DRB1*0301 (DR3) = DRB1*0301 (DR3) (Homo sapiens, UniProt P01903+P01911, A100K/A102G/A103R/A169T/F55Y/I96L/K41T/L162R/M171V/P40S/Q125H/Q178H/Q39Y/R42S/S66N/T106N/T262R/W38E/Y61H); experiment: HLA class II peptide binding assay, purified HLA; settings: unit not given
# DRB1*0701 (DR7) = DRB1*0701 (DR7) (Homo sapiens, UniProt P01903+P01911, A100R/A102G/A103Q/D57E/D86V/E43K/F76Y/K127E/L162R/M171V/P40G/Q125H/Q99D/R33Q/R42Y/R54Q/S133A/S66F/T210M/V115G/Y107V/Y59L/Y89S); experiment: HLA class II peptide binding assay, purified HLA; settings: Table XIX, DR supermotif peptides; unit not given
# [2] = Table XIX, DR supermotif peptides
# [3] = Table XXa, DR 3a motif peptides
Compound,DR147 Binding [1],DR147 Cross-binding [1],Broad Binding (5/8) [1],DR5w11 binding data (DRB1*1101 (DR5w11); [2]),DR8w2 binding data (DRB1*0802 (DR8w2); [2]),DR2w2B2 binding data (DRB5*0101 (DR2w2β2); [2]),DR4w4 binding data (DRB1*0401 (DR4w4)),DR2wB1 binding data (DRB1*1501 (DR2w2β1); unit not given),DR1 binding data (DRB1*0101 (DR1); [2]),DR6w19 binding data (DRB1*1302 (DR6w19); [2]),DR3 binding data (DRB1*0301 (DR3); [2]),DR7 binding data (DRB1*0701 (DR7)),other results
CC[C@H](C)[C@H](NC(=O)CNC(=O)[C@@H](NC(=O)[C@@H](NC(=O)[C@H](C)NC(=O)[C@H](CO)NC(=O)[C@@H](NC(=O)[C@@H](NC(=O)[C@H](CO)NC(=O)[C@@H](NC(=O)[C@H](CC(C)C)NC(=O)[C@@H]1CCCN1C(=O)[C@H](CO)NC(=O)[C@H](C)N)[C@@H](C)O)[C@@H](C)CC)[C@@H](C)CC)C(C)C)C(C)C)C(=O)N[C@@H](CC(C)C)C(=O)O,2,2,4,–,–,–,–,–,–,–,–,–,"IC50 (DRB5*0101 (DR2w2β2); Table XXIX, read-out: DR2w2β2 nM): 5410 nM; IC50 (DRB1*1501 (DR2w2β1); Table XXIX, read-out: DR2w2β1 nM): 96 nM; IC50 (DRB1*1302 (DR6w19); Table XXIX, read-out: DR6w19 nM): 73 nM"
CC[C@H](C)[C@H](NC(=O)[C@H](CCSC)NC(=O)[C@H](Cc1c[nH]c2ccccc12)NC(=O)[C@H](CS)NC(=O)[C@H](CCCCN)NC(=O)[C@@H](NC(=O)[C@H](CCSC)NC(=O)[C@@H](NC(=O)[C@H](CCSC)NC(=O)[C@H](Cc1ccc(O)cc1)NC(=O)[C@@H](NC(=O)[C@@H](N)CC(=O)O)C(C)C)[C@@H](C)CC)C(C)C)C(=O)N[C@@H](CC(=O)O)C(=O)N[C@@H](CO)C(=O)N[C@@H](CCC(=O)O)C(=O)O,3,3,4,0.0220,0.0450,0.0042,0.0570,0.0047,0.0280,−0.0003,0.0010,–,–
CC[C@H](C)[C@H](NC(=O)[C@H](CO)NC(=O)[C@H](CCC(=O)O)NC(=O)[C@H](CC(C)C)NC(=O)[C@H](C)NC(=O)[C@H](CCSC)NC(=O)[C@H](Cc1c[nH]c2ccccc12)NC(=O)[C@H](CCCCN)NC(=O)[C@@H](NC(=O)[C@@H]1CCCN1C(=O)[C@@H](NC(=O)[C@@H](N)CCCCN)C(C)C)[C@@H](C)CC)C(=O)N[C@@H](CC(C)C)C(=O)N[C@@H](CCCNC(=N)N)C(=O)N[C@@H](CCCNC(=N)N)C(=O)O,–,–,–,0.0073,–,2.1000,0.0690,2.7000,2.2000,0.0031,0.0620,0.0190,–
CC[C@H](C)[C@H](NC(=O)[C@H](CCCNC(=N)N)NC(=O)CNC(=O)[C@H](CCCNC(=N)N)NC(=O)[C@@H](NC(=O)[C@@H](NC(=O)[C@H](CCC(N)=O)NC(=O)[C@H](CC(C)C)NC(=O)[C@H](CC(N)=O)NC(=O)[C@H](CCC(N)=O)NC(=O)[C@H](Cc1ccccc1)NC(=O)[C@@H](NC(=O)[C@H](CO)NC(=O)[C@@H](N)CC(C)C)C(C)C)C(C)C)[C@@H](C)CC)C(=O)N[C@@H](CC(C)C)C(=O)O,3,3,6,0.0100,0.0330,0.0740,0.0670,0.0280,0.1800,0.0057,0.0010,0.2900,–
CC(C)C[C@H](NC(=O)[C@H](CO)NC(=O)[C@H](C)NC(=O)[C@H](CC(N)=O)NC(=O)[C@@H](NC(=O)[C@@H]1CCCN1C(=O)[C@H](CC(C)C)NC(=O)[C@H](Cc1ccc(O)cc1)NC(=O)[C@@H](NC(=O)[C@@H](N)CC(C)C)[C@@H](C)O)[C@@H](C)O)C(=O)N[C@@H](CO)C(=O)N[C@@H](Cc1ccccc1)C(=O)N[C@@H](CC(C)C)C(=O)N[C@@H](CCC(N)=O)C(=O)N[C@@H](CC(=O)O)C(=O)O,3,3,6,0.0041,0.0054,0.0560,0.3300,0.0100,0.4900,0.0280,0.0150,0.3200,–
CC(C)C[C@H](NC(=O)[C@H](CO)NC(=O)[C@H](C)NC(=O)[C@H](CC(N)=O)NC(=O)[C@@H](NC(=O)[C@@H]1CCCN1C(=O)[C@H](CC(C)C)NC(=O)[C@H](Cc1ccc(O)cc1)NC(=O)[C@@H](NC(=O)[C@H](CC(C)C)NC(=O)[C@H](CCC(=O)O)NC(=O)[C@H](CC(C)C)NC(=O)[C@@H](N)CC(N)=O)[C@@H](C)O)[C@@H](C)O)C(=O)N[C@@H](CO)C(=O)N[C@@H](Cc1ccccc1)C(=O)O,3,3,4,0.0050,0.0220,0.0090,0.3800,0.0280,0.4700,0.0017,0.0010,0.0680,–
ARLLDIDETEYHADG,–,–,–,−0.0008,−0.0009,−0.0007,–,−0.0006,0.0001,−0.0001,0.3100,–,"DR5w11 binding data (DRB1*1101 (DR5w11); [3]): −0.0008; DR8w2 binding data (DRB1*0802 (DR8w2); [3]): −0.0009; DR2w2B2 binding data (DRB5*0101 (DR2w2β2); [3]): −0.0007; No. of DR Alleles Crossbound ([1]; Table XXXI): 0; DR2w2B1 binding data (DRB1*1501 (DR2w2β1); Table XXa, DR 3a motif peptides, unit not given): −0.0006; DR1 binding data (DRB1*0101 (DR1); [3]): 0.0001; DR6w19 binding data (DRB1*1302 (DR6w19); [3]): −0.0001; DR3 binding data (DRB1*0301 (DR3); [3]): 0.3100"
ASPLTSHSAVVGIL,–,–,–,−0.0005,−0.0004,0.0037,−0.0025,0.0950,0.0890,0.0480,0.0010,0.0350,–
ELELRKVKVLGSGAF,–,–,–,0.0061,0.0250,0.0052,0.0350,0.0019,0.0160,0.0014,0.0045,0.0380,–
